According to ChEMBL document CHEMBL1125762, “Synthesis and pharmacological evaluation of 1-(aminomethyl)-3,4-dihydro-5-hydroxy-1H-2-benzopyrans as dopamine D1 selective ligands” (J Med Chem, 1991):

Columns and labels:
D(1) dopamine receptor = D(1) dopamine receptor (Carassius auratus, UniProt P35406); assay: In vitro inhibition of dopamine stimulated adenylate cyclase
D(2) dopamine receptor = D(2) dopamine receptor (Rattus norvegicus, UniProt P61169); assay: Binding affinity for dopamine receptor D2
Sequence of D(2) dopamine receptor (P61169 whole entry): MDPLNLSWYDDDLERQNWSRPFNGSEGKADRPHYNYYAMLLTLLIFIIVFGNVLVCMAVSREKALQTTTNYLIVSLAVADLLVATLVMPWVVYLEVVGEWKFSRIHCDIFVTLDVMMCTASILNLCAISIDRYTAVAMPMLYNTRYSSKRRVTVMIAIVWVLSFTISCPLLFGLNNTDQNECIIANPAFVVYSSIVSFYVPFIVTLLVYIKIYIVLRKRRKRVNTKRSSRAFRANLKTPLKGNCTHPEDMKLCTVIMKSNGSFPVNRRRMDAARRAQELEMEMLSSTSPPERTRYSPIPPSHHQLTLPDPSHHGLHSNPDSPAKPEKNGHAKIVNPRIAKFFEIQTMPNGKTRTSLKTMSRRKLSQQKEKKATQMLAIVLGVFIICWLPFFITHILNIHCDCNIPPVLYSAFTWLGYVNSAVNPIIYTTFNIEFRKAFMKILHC

D(1A) dopamine receptor = D(1A) dopamine receptor (Rattus norvegicus, UniProt P18901); assay: Binding affinity for dopamine receptor D1
Sequence of D(1A) dopamine receptor (P18901 whole entry): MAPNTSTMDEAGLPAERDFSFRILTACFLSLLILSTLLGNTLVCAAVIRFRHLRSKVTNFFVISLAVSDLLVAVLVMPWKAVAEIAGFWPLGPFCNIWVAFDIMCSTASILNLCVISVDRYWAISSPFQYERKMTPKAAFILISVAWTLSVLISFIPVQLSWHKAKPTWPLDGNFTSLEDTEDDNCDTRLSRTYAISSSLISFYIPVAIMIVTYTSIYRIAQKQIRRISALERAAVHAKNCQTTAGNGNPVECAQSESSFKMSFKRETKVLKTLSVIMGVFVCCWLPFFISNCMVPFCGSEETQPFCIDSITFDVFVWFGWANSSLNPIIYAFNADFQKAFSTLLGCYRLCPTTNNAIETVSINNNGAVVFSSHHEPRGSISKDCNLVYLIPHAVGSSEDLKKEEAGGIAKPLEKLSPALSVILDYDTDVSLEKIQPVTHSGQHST

Rattus norvegicus [1] = assay: Compound was tested for the net contralateral rotations in rats 2 hr after sc administration of 1.7 umol/kg dopamine agonist; Activity expressed as net contralateral rotations / 2 hr; assay type: functional
Rattus norvegicus [2] = assay: Compound was tested for the net contralateral rotations in rats 2 hr after administration of 1.7 umol/kg, predosed with SCH-23390 (0.05 umol/kg sc), 40 min prior to injection of test compound; Activity expressed as net contralateral rotations / 2ho; assay type: functional
Rattus norvegicus [3] = assay: Compound was tested for the net contralateral rotations in rats, 2 hr after sc administration of 0.43 umol/kg dopamine agonist; Activity expressed as net contralateral rotations / 2 hr; assay type: functional
Rattus norvegicus [4] = assay: Compound was tested for the net contralateral rotations in rats 2 hr after administration of 0.1 umol/kg, predosed with SCH-23390 (0.1 umol/kg sc), 40 min prior to injection of test compound; Activity expressed as net contralateral rotations / 2 hr
[5] = molecular target: T1, Adrenergic receptor alpha-1 (Homo sapiens, UniProt P35348+P25100+P35368); assay: Compound was tested in vitro for binding affinity for alpha-1 adrenergic receptor; assay type: protein assay
T1 sequence (P35348 whole entry): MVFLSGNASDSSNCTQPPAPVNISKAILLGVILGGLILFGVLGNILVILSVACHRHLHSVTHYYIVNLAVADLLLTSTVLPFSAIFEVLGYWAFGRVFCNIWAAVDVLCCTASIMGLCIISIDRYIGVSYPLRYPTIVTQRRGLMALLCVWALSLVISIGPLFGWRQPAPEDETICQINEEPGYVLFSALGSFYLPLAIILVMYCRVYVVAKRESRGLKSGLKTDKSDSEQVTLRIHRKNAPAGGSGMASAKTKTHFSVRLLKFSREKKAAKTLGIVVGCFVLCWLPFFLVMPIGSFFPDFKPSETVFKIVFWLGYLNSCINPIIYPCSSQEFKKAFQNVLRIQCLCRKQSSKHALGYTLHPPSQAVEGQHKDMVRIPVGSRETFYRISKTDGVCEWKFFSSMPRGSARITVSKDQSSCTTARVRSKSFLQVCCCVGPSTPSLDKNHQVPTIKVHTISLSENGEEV
T1 sequence (P25100 whole entry): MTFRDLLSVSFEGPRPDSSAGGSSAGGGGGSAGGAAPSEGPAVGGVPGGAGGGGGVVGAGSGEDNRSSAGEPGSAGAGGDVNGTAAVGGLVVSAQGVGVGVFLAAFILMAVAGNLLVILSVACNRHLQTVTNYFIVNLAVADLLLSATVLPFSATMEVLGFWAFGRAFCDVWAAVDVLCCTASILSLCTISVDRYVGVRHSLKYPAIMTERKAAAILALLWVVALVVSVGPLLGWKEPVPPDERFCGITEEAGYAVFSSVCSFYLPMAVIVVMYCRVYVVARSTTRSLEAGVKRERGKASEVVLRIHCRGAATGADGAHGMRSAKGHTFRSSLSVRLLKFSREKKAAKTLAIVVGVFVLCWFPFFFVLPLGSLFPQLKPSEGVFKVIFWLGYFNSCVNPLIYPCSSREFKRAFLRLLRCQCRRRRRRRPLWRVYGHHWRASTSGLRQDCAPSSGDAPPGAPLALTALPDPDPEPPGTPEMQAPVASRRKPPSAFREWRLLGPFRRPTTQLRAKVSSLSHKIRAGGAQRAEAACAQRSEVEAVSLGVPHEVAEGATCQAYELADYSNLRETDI
T1 sequence (P35368 whole entry): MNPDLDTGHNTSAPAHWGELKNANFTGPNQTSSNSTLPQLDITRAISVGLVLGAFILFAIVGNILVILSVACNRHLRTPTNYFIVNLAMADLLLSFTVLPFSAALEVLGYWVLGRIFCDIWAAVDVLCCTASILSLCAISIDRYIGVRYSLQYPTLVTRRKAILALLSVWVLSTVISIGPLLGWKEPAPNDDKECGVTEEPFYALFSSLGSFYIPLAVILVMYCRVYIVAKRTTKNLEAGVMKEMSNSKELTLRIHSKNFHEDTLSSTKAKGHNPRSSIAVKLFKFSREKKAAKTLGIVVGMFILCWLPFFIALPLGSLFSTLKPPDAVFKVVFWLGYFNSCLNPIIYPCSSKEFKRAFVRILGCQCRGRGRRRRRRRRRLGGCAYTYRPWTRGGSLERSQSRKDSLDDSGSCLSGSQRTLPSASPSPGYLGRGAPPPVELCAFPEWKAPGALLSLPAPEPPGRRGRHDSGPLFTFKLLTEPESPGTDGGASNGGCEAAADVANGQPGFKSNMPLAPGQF

[6] = molecular target: T2, 5-hydroxytryptamine receptor 1A (Rattus norvegicus, UniProt P19327); assay: Compound was tested in vitro for binding affinity for 5-hydroxytryptamine 1A receptor
T2 sequence (P19327 whole entry): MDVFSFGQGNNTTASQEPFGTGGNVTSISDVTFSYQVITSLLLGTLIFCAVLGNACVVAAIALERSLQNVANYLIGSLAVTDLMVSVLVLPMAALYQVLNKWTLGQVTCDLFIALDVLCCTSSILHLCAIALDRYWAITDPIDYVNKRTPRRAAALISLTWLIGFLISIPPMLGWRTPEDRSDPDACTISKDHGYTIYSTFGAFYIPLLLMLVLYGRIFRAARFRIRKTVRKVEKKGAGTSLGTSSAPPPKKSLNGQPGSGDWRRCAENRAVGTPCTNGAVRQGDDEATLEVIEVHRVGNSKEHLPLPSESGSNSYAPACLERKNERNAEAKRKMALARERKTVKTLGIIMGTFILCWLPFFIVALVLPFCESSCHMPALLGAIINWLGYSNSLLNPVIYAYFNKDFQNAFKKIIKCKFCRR

Rattus norvegicus [7] = assay: Compound was tested for the net contralateral rotations in rats 2 hr after administration of 0.1 uM/kg dopamine agonist; Activity expressed as net contralateral rotations / 2 hr; assay type: functional
[8] = molecular target: T3, Adrenergic receptor alpha-2 (Homo sapiens, UniProt P08913+P18825+P18089); assay: Compound was tested in vitro for binding affinity for alpha-2 adrenergic receptor; assay type: protein assay
T3 sequence (P08913 whole entry): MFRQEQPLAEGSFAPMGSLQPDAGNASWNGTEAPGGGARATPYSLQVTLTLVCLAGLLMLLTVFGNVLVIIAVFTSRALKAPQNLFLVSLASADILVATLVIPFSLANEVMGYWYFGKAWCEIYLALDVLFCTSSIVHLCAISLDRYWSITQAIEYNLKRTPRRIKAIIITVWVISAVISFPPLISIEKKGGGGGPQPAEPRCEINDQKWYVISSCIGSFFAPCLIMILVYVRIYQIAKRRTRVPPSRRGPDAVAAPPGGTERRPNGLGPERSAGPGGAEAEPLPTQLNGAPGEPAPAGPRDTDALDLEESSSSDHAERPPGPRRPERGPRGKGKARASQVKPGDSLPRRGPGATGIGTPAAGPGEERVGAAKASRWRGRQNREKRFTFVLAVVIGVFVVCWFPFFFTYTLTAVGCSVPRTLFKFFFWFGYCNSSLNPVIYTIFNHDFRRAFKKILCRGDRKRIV
T3 sequence (P18825 whole entry): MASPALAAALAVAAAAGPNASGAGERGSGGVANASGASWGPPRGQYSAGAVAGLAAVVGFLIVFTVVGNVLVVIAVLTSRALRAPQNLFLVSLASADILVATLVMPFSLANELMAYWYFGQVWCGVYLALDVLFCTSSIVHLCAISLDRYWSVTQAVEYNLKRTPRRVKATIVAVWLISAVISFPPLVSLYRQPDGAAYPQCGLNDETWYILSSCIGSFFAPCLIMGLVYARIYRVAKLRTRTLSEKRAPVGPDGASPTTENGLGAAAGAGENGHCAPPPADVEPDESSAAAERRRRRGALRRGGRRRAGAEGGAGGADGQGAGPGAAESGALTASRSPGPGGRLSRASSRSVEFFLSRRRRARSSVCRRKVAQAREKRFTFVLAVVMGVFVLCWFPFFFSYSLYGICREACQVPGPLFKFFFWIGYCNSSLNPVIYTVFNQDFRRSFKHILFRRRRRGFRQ
T3 sequence (P18089 whole entry): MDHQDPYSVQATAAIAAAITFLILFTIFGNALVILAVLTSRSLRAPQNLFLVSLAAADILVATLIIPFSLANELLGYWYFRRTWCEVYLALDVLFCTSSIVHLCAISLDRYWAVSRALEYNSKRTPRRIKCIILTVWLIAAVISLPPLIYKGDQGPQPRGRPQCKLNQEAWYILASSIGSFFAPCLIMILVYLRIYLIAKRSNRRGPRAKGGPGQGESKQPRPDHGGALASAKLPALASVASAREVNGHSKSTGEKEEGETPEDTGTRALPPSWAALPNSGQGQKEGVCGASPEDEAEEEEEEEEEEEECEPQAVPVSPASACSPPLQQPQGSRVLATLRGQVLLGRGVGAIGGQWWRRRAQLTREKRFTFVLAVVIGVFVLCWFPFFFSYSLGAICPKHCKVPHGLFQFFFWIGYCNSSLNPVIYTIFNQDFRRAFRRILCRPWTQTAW

Rattus norvegicus [9] = assay: Compound was tested for the net contralateral rotations in rats 2 hr after administration of 1 uM/kg dopamine agonist; Activity expressed as net contralateral rotations / 2 hr; assay type: functional
[10] = molecular target: Serotonin 2 (5-HT2) receptor (Rattus norvegicus, UniProt P30994+P08909+P14842); assay: Compound was tested in vitro for binding affinity for 5-hydroxytryptamine 2 receptor; assay type: protein assay
[11] = molecular target: Beta-2 adrenergic receptor (Canis lupus familiaris, UniProt P54833); assay: Compound was tested in vitro for binding affinity for beta receptor
Sequence of Beta-2 adrenergic receptor (P54833 whole entry): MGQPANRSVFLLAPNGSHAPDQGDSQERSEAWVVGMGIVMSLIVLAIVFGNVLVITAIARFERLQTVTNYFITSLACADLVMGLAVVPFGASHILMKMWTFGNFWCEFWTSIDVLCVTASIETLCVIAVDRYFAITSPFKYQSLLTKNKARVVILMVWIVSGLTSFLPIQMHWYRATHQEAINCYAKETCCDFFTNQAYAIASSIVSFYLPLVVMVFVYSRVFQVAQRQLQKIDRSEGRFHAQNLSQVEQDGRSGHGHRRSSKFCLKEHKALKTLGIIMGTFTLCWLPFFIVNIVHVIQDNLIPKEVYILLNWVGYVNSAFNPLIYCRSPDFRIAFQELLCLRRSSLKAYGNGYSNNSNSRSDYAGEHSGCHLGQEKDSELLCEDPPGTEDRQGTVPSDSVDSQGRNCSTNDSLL

[12] = molecular target: Sodium-dependent dopamine transporter (Homo sapiens, UniProt Q01959); assay: In vitro binding affinity for dopamine uptake site
Sequence of Sodium-dependent dopamine transporter (Q01959 whole entry): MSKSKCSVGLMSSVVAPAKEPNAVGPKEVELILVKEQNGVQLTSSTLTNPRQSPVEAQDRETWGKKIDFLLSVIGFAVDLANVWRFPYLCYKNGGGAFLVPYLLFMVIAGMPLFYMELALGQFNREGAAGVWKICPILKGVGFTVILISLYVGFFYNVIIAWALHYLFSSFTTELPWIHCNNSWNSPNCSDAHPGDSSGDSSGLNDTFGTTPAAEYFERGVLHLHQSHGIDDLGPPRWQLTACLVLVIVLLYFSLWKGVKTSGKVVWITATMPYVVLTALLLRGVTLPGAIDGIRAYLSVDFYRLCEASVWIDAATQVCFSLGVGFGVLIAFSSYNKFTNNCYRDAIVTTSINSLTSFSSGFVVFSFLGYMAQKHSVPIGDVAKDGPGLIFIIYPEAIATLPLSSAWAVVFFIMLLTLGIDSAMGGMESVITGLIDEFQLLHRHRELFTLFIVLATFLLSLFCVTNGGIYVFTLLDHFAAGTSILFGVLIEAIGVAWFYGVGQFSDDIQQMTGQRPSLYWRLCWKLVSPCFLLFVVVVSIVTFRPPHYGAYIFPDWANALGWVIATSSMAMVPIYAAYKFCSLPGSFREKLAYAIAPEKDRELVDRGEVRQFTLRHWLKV

Sequence of D(1) dopamine receptor (P35406 whole entry): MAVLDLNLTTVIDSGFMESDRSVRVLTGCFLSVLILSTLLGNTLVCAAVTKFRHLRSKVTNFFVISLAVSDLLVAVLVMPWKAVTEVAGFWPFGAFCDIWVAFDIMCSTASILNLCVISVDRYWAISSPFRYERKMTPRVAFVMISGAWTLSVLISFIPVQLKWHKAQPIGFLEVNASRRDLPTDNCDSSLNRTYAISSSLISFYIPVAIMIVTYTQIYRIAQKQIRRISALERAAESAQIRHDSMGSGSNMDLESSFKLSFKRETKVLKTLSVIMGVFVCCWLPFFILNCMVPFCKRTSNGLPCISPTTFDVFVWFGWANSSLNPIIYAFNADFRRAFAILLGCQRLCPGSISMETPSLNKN

SMILES	Ki (D(1) dopamine receptor) [nM]	Ki (D(2) dopamine receptor) [nM]	Ki (D(1A) dopamine receptor) [nM]	also measured
NC[C@@H]1O[C@H](c2ccccc2)Cc2c(O)cccc21	52.5	> 30000	103	
NC[C@H]1O[C@H](c2ccccc2)Cc2c1ccc(Br)c2O	197	1960	366	
Oc1cc2c(cc1O)[C@@H](c1ccccc1)CNCC2 [(R)-SKF-38393]				Activity (Rattus norvegicus [1]): 608; Activity (Rattus norvegicus [2]): 47; Activity (Rattus norvegicus [3]): 241
Cl.NC[C@@H]1O[C@H](c2ccccc2)Cc2c1ccc(Br)c2O	32.4	569	5.1	Activity (Rattus norvegicus [4]): 151; Ki [5]: 1820 nM; Ki [6]: 312 nM; Activity (Rattus norvegicus [7]): 1007; Ki [8]: 360 nM; Activity (Rattus norvegicus [9]): 748; Ki [10]: 6360 nM; Ki [11]: 18400 nM; Ki [12]: > 30000 nM
COc1ccc2c(c1O)C[C@@H](c1ccccc1)O[C@H]2CN	247	> 30000	166	

The next lines start with results.

Ki (D(1) dopamine receptor) [nM]	Ki (D(2) dopamine receptor) [nM]	Ki (D(1A) dopamine receptor) [nM]	SMILES	also measured
	1120	5.4	NC[C@@H]1O[C@H](C2CCCCC2)Cc2c1ccc(O)c2O	
125	18000	284	Cc1ccc2c(c1O)C[C@@H](C1CCCCC1)O[C@H]2CN(C)C	
100	> 30000	86.4	Br.Cc1ccc2c(c1O)C[C@@H](C1CCCCC1)O[C@H]2CN	Activity (Rattus norvegicus [4]): 4; Ki [5]: > 30000 nM; Ki [6]: 54.1 nM; Activity (Rattus norvegicus [7]): 227; Ki [8]: 358 nM; Activity (Rattus norvegicus [9]): 751; Ki [10]: 242 nM; Ki [11]: 19200 nM; Ki [12]: 1870 nM
121	4610	263	CNC[C@@H]1O[C@H](C2CCCCC2)Cc2c1ccc(C)c2O	
454	2630	2820	CCCNC[C@@H]1O[C@H](C2CCCCC2)Cc2c1ccc(C)c2O	
